Key:
[1] = dog, in vivo
Protocol: A second series of tests will be carried out, as noted above, using beagle dogs. […] In the experiments, size 00 HPLC capsules will be filled with 758 mg of a powdered blend consisting of citric acid (643 mg), lauroyl carnitine (66 mg), talc (33 mg), salmon calcitonin (sCT) (13 mg) and aromatic-cationic peptide (2.4 mg). Half of the capsules will be coated with an enteric coating solution of L30D-55, while the remaining 50% of the capsules will not be coated. Four fasted dogs will be each given 1 uncoated capsule, and 2 weeks later they will be each given an enteric coated capsule. […] The plasma samples will be subsequently analyzed for sCT by a direct ELISA, and for aromatic-cationic peptide by HPLC-mass spectrometry performed as set forth in Wan, H. and Desiderio, D., Quantitation of dmt-DALDA in ovine plasma by on-line liquid chromatography/quadrapole time-of-flight mass spectrometry, Rapid Communications in Mass Spectrometry, 2003; 17, 538-546, the contents of which are incorporated herein by reference.
The results will be summarized as plasma peptide concentration normalized to a 1 mg dose as a function of time relative to the average Tmax, (i.e., the time at which the maximum amount of peptide is detected). The results are expected to indicate that both peptides, i.e., sCT and aromatic-cationic peptide, are detected in dogs given uncoated or enteric coated capsules.

[2] = Blood levels of salmon calcitonin after injection into duodenum, ileum or colon; type: in vivo; conditions: rat, other: injected directly into the duodenum, active components injected directly into the duodenum
Source text: The pH-lowering agent is believed to lower the local pH (where the active agent has been released) to levels below the optimal range for many intestinal proteases. This decrease in pH reduces the proteolytic activity of the intestinal proteases, thus affording protection to the peptide from potential degradation should the peptide be present within the intestine. The activity of these proteases is diminished by the temporarily acidic environment as discussed herein. For example, sufficient acid should be provided that local intestinal pH is lowered temporarily to 5.5 or below, 4.7 or below, or 3.5 or below. The sodium bicarbonate test described below (in the section captioned “the pH-Lowering Agent”) is indicative of the required acid amount. […] The absorption enhancers of the present formulations synergistically promote peptide absorption into the blood while conditions of reduced proteolytic activity prevail. The mechanism by which the present formulations are believed to accomplish the goal of enhanced bioavailability is aided by having active components of the finished pharmaceutical product released together as simultaneously as possible.
The acid is believed to lower the local intestinal pH, where the aromatic-cationic peptide has been released, to levels below the optimal range for many intestinal proteases and other intestinal enzymes. […]

Structure (SMILES): CC(C)C[C@H](NC(=O)[C@H](CCCCN)NC(=O)CNC(=O)[C@H](CC(C)C)NC(=O)[C@@H](NC(=O)[C@@H]1CSSC[C@H](N)C(=O)N[C@@H](CO)C(=O)N[C@@H](CC(N)=O)C(=O)N[C@@H](CC(C)C)C(=O)N[C@@H](CO)C(=O)N[C@@H]([C@@H](C)O)C(=O)N1)C(C)C)C(=O)N[C@@H](CO)C(=O)N[C@@H](CCC(N)=O)C(=O)N[C@@H](CCC(=O)O)C(=O)N[C@@H](CC(C)C)C(=O)N[C@@H](Cc1c[nH]cn1)C(=O)N[C@@H](CCCCN)C(=O)N[C@@H](CC(C)C)C(=O)N[C@@H](CCC(N)=O)C(=O)N[C@H](C(=O)N[C@@H](Cc1ccc(O)cc1)C(=O)N1CCC[C@H]1C(=O)N[C@@H](CCCNC(=N)N)C(=O)N[C@H](C(=O)N[C@@H](CC(N)=O)C(=O)N[C@H](C(=O)NCC(=O)N[C@@H](CO)C(=O)NCC(=O)N[C@H](C(=O)N1CCC[C@H]1C(N)=O)[C@@H](C)O)[C@@H](C)O)[C@@H](C)O)[C@@H](C)O [salmon calcitonin]
- amount detected in plasma, enteric coated vs non-coated capsules [1]: nearly eight times
- Tmax [2]: 5 to 15 min

Reference: patent US20150118315A1, “AROMATIC-CATIONIC PEPTIDES AND USES OF SAME” (Stealth Peptides International, Inc., priority 2011, published 2015)
